In patent publication US9975911B2, “Antibacterial compounds and biological applications thereof” (LABORATOIRE BIODIM, priority 2012, dated 2018):
Where two headings read alike, the source gives them in different places.

Key:
[1] = tested on: E. coli C7 (018:K1:H7) LPS heptosylation; assay: Inhibition of E. coli C7 (018:K1:H7) LPS biosynthesis (LPS gel electrophoresis, Re-LPS band); type: cell-based; details: read-out: EC50 of E. coli C7 LPS heptosylation inhibition
Description: Inhibition of E. coli C7 (018:K1:H7) LPS Biosynthesis:
The inner core contains several heptose residues. An inhibitor of the LPS heptosylation pathway should therefore reduce dramatically the size of LPS from full-length to the so-called ‘Re-LPS’ limited to lipid A branched with 2 Kdo residues.
The effect of heptosylation inhibitors on E. coli LPS was assessed as described below. The compounds to be tested were prepared in deionised water/DMSO (50/50) solutions and added (25 μL) in sterile culture microtubes. The strain used in this study was E. coli C7 (018:K1:H7). The bacteria were isolated on tryptic soy agar (TSA) overnight. Isolated colonies were cultured in 10 mL of Luria-Bertani medium (LB) at 37° C. up to an optical density (OD) of typically 0.15. These exponentially growing bacteria were finally diluted to 5e5 cfu/mL and added in each well (225 μL) for incubation with the compounds at 37° C. for approximately 5 hours, up to an optical density of ≈0.2-0.4. Some test compounds e.g. phospho-sugars required Glucose-6-Phosphate (G6P, from Sigma) to be added in the culture medium in order to activate their active transport into the bacterial cytosol via the phospho-sugar transporter UhpT. This was achieved by adding in the culture tube 2.5 μL of a 10 mM water solution of G6P (100 μM final concentration).
Bacterial cultures were normalized via OD determination, pelleted and washed with 1 mL Phosphate-Buffer-Saline (PBS). The pellets were then denatured for 10 min at 95-100° C. in 50 μL of Sodium dodecyl sulphate 0.2% (SDS), beta-mercaptoethanol 1%, Glycerol 36%, Tris pH 7.4 30 mM and bromophenol blue 0.001%. Samples were cooled down to room temperature, supplemented with 1.5 μl of proteinase K at 20 mg/mL, incubated for 1 hour at 55° C. and centrifuged for […] at 13,000 rpm at 25° C. The resulting supernatant, containing LPS, was finally analysed by SDS-PAGE electrophoresis.
LPS SDS-PAGE Electrophoresis:
Polyacrylamide gels (16%/4% acrylamide for separation and concentration respectively) were prepared, loaded with 8 μL of LPS extracts and migrated.
Gels were incubated overnight in 5% acetic acid/40% ethanol/deionised water, treated by 1% periodic acid/5% acetic acid for 15 min, washed 4 times for 10 min in deionised water and finally incubated for 18 min in the dark in a silver nitrate solution composed of 56 mL NaOH 0.1N, 4 mL ammoniac 33%, 45 mL AgNO3 5% (Tsai and Frasch) and 195 mL deionised water. Gels were then washed extensively in deionised water for 30 min and incubated for 10-15 min (up to LPS bands apparition) in the revelation mix composed of 300 mL deionised water, 300 μL formaldehyde 36.5% (Fluka) and 100 μL citric acid 2.3M. The revelation was stopped by incubating the gels in acetic acid 10% for 5 min. Gels were finally washed in deionised water, numerized with a Samsung PL51 camera and analysed by ImageJ software. The percentage of inhibition of LPS heptosylation was defined as the relative area of the Re-LPS band compared to the cumulated areas of Re-LPS and Core-LPS bands.

GmhA of E. coli = GmhA of E. coli (Escherichia coli, UniProt P63224); assay: Inhibition of the enzymatic activity of GmhA (luminescent assay); type: biochemical
Description: Inhibition of the Enzymatic Activity of GmhA (Luminescent Assay):
The assay buffer “AB” contained 50 mM Hepes pH7.5, 1 mM MnCl2, 25 mM KCl, 0.012% Triton-X100, 1 mM dithiothreitol (DTT) and 0.1 μM Myelin basic protein (MBP). The following components were added in a white polystyrene Costar plate up to a final volume of 30 μL: 10 μL inhibitor dissolved in DMSO/water 50/50, and 20 μL GmhA of E. coli in AB. After 30 min of pre-incubation at room temperature, 30 μL of Substrates mix in AB were added in each well to a final volume of 60 μL. This reaction mixture was then composed of 2 nM GmhA, 3 μM sedoheptulose-7-phosphate (Sigma), 3 μM ATP (Sigma) and 50 nM HldE of E. coli in assay buffer. After 30 minutes of incubation at room temperature, 100 μL of the revelation mix were added to a final volume of 160 μL, including the following constituents at the respective final concentrations: 10000 light units/mL luciferase (Sigma), 20 μM D-luciferin (Sigma), 100 μM N-acetylcysteamine (Aldrich). Luminescence intensity was immediately measured on Luminoskan (Thermofisher) and converted into inhibition percentages. For IC50 determinations, the inhibitor was tested at 6 to 10 different concentrations, and the related inhibitions were fitted to a classical Langmuir equilibrium model using XLFIT (IDBS).

E. coli C7 (O18:K1:H7) = assay: Combination with antibiotics on E. coli C7 (MIC of the antibiotics); type: cell-based; details: in the presence of 100 μM G6P; for MIC of the antibiotic alone: without test compound
Description: Combination with Antibiotics on E. coli C7 (018:K1:H7):
The compound to be tested was diluted in 50 mM HEPES buffer pH 7.4 from 10 mM stock solution. 5 μL of compound dilution or buffer were distributed in a sterile clear round bottom 96-well polystyrene microplate (Corning). 5 μL of serial 2-fold dilutions of reference antibiotics (Erythromycin (Fluka), Rifampicin (Fluka), or Synercid® (Monarch Pharmaceuticals)) in DMSO were added. An exponentially growing preculture of E. coli C7 (O18:K1:H7) in LB was diluted to 1e4 cfu/mL and supplemented with 100 μM G6P, and 90 μL of this suspension were added to the microplates. After overnight incubation at 37° C., the minimal inhibitory concentration (MIC) of the antibiotics were determined for each test compound concentration, as the lowest antibiotic concentration for which no bacterial pellet is visible without magnification.

[2] = test compound at concentrations <1 mM

Chain of GmhA of E. coli (P63224 whole entry): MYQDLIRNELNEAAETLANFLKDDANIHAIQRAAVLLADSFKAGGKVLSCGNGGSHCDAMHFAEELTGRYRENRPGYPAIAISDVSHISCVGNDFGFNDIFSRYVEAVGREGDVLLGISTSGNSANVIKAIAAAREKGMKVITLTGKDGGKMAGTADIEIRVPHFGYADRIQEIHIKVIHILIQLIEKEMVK

For `O=CN(O)C(CO)[C@H](O)[C@H](O)[C@H](O)CCP(=O)(O)O` (single isomer, unassigned) [Example 7], the EC50 ([1]; Escherichia coli) was 220 µM and the IC50 (GmhA of E. coli; read-out: IC50 GmhA E. coli) was 0.046 µM.
Work on `O=CN(O)C(CO)[C@H](O)[C@H](O)[C@H](O)CCP(=O)(O)O` (single isomer, unassigned) [Example 8] yielded an EC50 [1] of 180 µM and an IC50 (GmhA of E. coli; read-out: IC50 GmhA E. coli) of 0.027 µM.
With `O=CN(O)C[C@H](O)[C@H](O)[C@H](O)COP(=O)([O-])O.[Na+]` [Example 2, N-hydroxy-N-formylamino-1-deoxy-D-ribitol-5-phosphate] the EC50 ([1]; Escherichia coli) was 18 µM, the “MIC of Synercid in combination with the compound” value (E. coli C7 (O18:K1:H7); [2]) was 8 µg/mL and the “MIC of erythromycin in combination with the compound” value (E. coli C7 (O18:K1:H7); [2]) was 1 µg/mL. For the same molecule, the “MIC of rifampicin in combination with the compound” value (E. coli C7 (O18:K1:H7); [2]) was 0.25 µg/mL, the “potentiation of Synercid” value (E. coli C7 (O18:K1:H7); [2]) was 16 fold and the potentiation of erythromycin (E. coli C7 (O18:K1:H7); [2]) was 32 fold. It also gave a potentiation of rifampicin (E. coli C7 (O18:K1:H7); [2]) of 16 fold and an IC50 (GmhA of E. coli; read-out: IC50 GmhA E. coli) of 0.0024 µM.
`O=CN(O)C[C@H](O)[C@H](O)[C@H](O)CCP(=O)(O)O` [Example 3, [6-(Formyl-hydroxy-amino)-(3R,4R,5S)-3,4,5-trihydroxy-hexyl]-phosphonic acid] gave an EC50 ([1]; Escherichia coli) of 18 µM and an IC50 (GmhA of E. coli; IC50 GmhA E. coli) of 0.003 µM.
With `O=CN(O)C[C@H](O)[C@H](O)[C@H](O)CC(F)P(=O)(O)O` (stereo partly drawn) [Example 9, [1-Fluoro-6-(formyl-hydroxy-amino)-(3R,4R,5S)-3,4,5-trihydroxy-hexyl]-phosphonic acid] the EC50 ([1]; Escherichia coli) was 76 µM and the IC50 (GmhA of E. coli; IC50 GmhA E. coli) was 0.015 µM.
In the case of `CC[C@H]1OC(=O)[C@H](C)[C@@H](O[C@H]2C[C@@](C)(OC)[C@@H](O)[C@H](C)O2)[C@H](C)[C@@H](O[C@@H]2O[C@H](C)C[C@H](N(C)C)[C@H]2O)[C@](C)(O)C[C@@H](C)C(=O)[C@H](C)[C@@H](O)[C@]1(C)O` [erythromycin, Erythromycin, reference compound], the “MIC of the antibiotic alone” value (E. coli C7 (O18:K1:H7)) is reported as 32 µg/mL.
For `CO[C@H]1/C=C/O[C@@]2(C)Oc3c(C)c(O)c4c(O)c(c(/C=N/N5CCN(C)CC5)c(O)c4c3C2=O)NC(=O)/C(C)=C\C=C\[C@H](C)[C@H](O)[C@@H](C)[C@@H](O)[C@@H](C)[C@H](OC(C)=O)[C@@H]1C` [rifampicin, Rifampicin, reference compound], the “MIC of the antibiotic alone” value (E. coli C7 (O18:K1:H7)) was 4 µg/mL.
